# Species: Rattus norvegicus
# Test: DrugMatrix - Regimen: Daily Repeat
# Format: toxicity, organism-based, Sprague-Dawley
# Set-up: regimen Daily Repeat, gender Male, age 6-8 weeks
# Conditions: in vivo, sc, route subcutaneous, […]; for ABSOLUTE BASOPHIL / ABSOLUTE EOSINOPHIL / ABSOLUTE LYMPHOCYTE / ABSOLUTE MONOCYTE / ABSOLUTE SEGMENTED NEUTROPHIL / BASOPHIL / EOSINOPHIL / ERYTHROCYTE COUNT / HEMATOCRIT / HEMOGLOBIN / LEUKOCYTE COUNT / LYMPHOCYTE / MEAN CORPUSCULAR HEMOGLOBIN / MEAN CORPUSCULAR HEMOGLOBIN CONCENTRATION / MEAN CORPUSCULAR VOLUME / MONOCYTE / NEUTROPHIL / NUCLEATED RED BLOOD CELLS / PLATELET COUNT: tissue Blood; for ALANINE AMINOTRANSFERASE / ALBUMIN / ALKALINE PHOSPHATASE / ASPARTATE AMINOTRANSFERASE / BLOOD UREA NITROGEN / CARBON DIOXIDE / CHLORIDE / CHOLESTEROL / CREATINE PHOSPHOKINASE / CREATININE / GLUCOSE / LACTATE DEHYDROGENASE / LIPASE / PHOSPHORUS / POTASSIUM / SODIUM / TOTAL BILIRUBIN / TOTAL PROTEIN / URIC ACID: tissue Plasma
# [1] = 0 mg/kg, 72 h, dose level Control, time 3 day
# [2] = 0 mg/kg, 120 h, dose level Control, time 5 day
# [3] = 56 mg/kg, 72 h, dose level M1, time 3 day
smiles,measurement,setting,value
O=C(Nc1ccc(Br)cc1)c1cc(Br)cc(Br)c1O [TRIBROMSALAN],ABSOLUTE BASOPHIL,[1],0 CELLS/uL
same,ABSOLUTE EOSINOPHIL,[1],42.67 CELLS/uL
same,ABSOLUTE LYMPHOCYTE,[1],10202 CELLS/uL
same,ABSOLUTE MONOCYTE,[1],261.5 CELLS/uL
same,ABSOLUTE SEGMENTED NEUTROPHIL,[1],2193.83 CELLS/uL
same,BASOPHIL,[1],0%
same,EOSINOPHIL,[1],0.33%
same,ERYTHROCYTE COUNT,[1],5.63 x10E6/uL
same,HEMATOCRIT,[1],35.35%
same,HEMOGLOBIN,[1],13.07 G/DL
same,LEUKOCYTE COUNT,[1],12.7 x10E3/uL
same,LYMPHOCYTE,[1],81.17%
same,MEAN CORPUSCULAR HEMOGLOBIN,[1],23.23 pg
same,MEAN CORPUSCULAR HEMOGLOBIN CONCENTRATION,[1],36.97 G/DL
same,MEAN CORPUSCULAR VOLUME,[1],62.82 fL
same,MONOCYTE,[1],2%
same,NEUTROPHIL,[1],16.5%
same,NUCLEATED RED BLOOD CELLS,[1],0 /100WBC
same,PLATELET COUNT,[1],1180.33 x10E3/uL
same,ALANINE AMINOTRANSFERASE,[1],48.67 u/L
same,ALBUMIN,[1],4.08 G/DL
same,ALKALINE PHOSPHATASE,[1],360.67 u/L
same,ASPARTATE AMINOTRANSFERASE,[1],85.5 u/L
same,BLOOD UREA NITROGEN,[1],17.83 mg/dL
same,CARBON DIOXIDE,[1],26.17 mmol/L
same,CHLORIDE,[1],101.83 MEQ/L
same,CHOLESTEROL,[1],71 mg/dL
same,CREATINE PHOSPHOKINASE,[1],515.17 u/L
same,CREATININE,[1],0.22 mg/dL
same,GLUCOSE,[1],192.5 mg/dL
same,LACTATE DEHYDROGENASE,[1],214.67 u/L
same,LIPASE,[1],8.5 u/L
same,PHOSPHORUS,[1],12.95 mg/dL
same,POTASSIUM,[1],6.39 MEQ/L
same,SODIUM,[1],142.38 MEQ/L
same,TOTAL BILIRUBIN,[1],0.18 mg/dL
same,TOTAL PROTEIN,[1],5.95 G/DL
same,URIC ACID,[1],1.83 mg/dL
same,ABSOLUTE BASOPHIL,[2],0 CELLS/uL
same,ABSOLUTE EOSINOPHIL,[2],188.5 CELLS/uL
same,ABSOLUTE LYMPHOCYTE,[2],12360.83 CELLS/uL
same,ABSOLUTE MONOCYTE,[2],64.33 CELLS/uL
same,ABSOLUTE SEGMENTED NEUTROPHIL,[2],1986.33 CELLS/uL
same,BASOPHIL,[2],0%
same,EOSINOPHIL,[2],1.33%
same,ERYTHROCYTE COUNT,[2],5.52 x10E6/uL
same,HEMATOCRIT,[2],35.82%
same,HEMOGLOBIN,[2],13.25 G/DL
same,LEUKOCYTE COUNT,[2],14.6 x10E3/uL
same,LYMPHOCYTE,[2],84.5%
same,MEAN CORPUSCULAR HEMOGLOBIN,[2],24.05 pg
same,MEAN CORPUSCULAR HEMOGLOBIN CONCENTRATION,[2],36.98 G/DL
same,MEAN CORPUSCULAR VOLUME,[2],64.97 fL
same,MONOCYTE,[2],0.5%
same,NEUTROPHIL,[2],13.67%
same,NUCLEATED RED BLOOD CELLS,[2],0 /100WBC
same,PLATELET COUNT,[2],1297.83 x10E3/uL
same,ALANINE AMINOTRANSFERASE,[2],51.17 u/L
same,ALBUMIN,[2],4.08 G/DL
same,ALKALINE PHOSPHATASE,[2],393.17 u/L
same,ASPARTATE AMINOTRANSFERASE,[2],111 u/L
same,BLOOD UREA NITROGEN,[2],18.17 mg/dL
same,CARBON DIOXIDE,[2],25 mmol/L
same,CHLORIDE,[2],105.17 MEQ/L
same,CHOLESTEROL,[2],65.5 mg/dL
same,CREATINE PHOSPHOKINASE,[2],911.5 u/L
same,CREATININE,[2],0.21 mg/dL
same,GLUCOSE,[2],183 mg/dL
same,LACTATE DEHYDROGENASE,[2],189 u/L
same,LIPASE,[2],8.33 u/L
same,PHOSPHORUS,[2],12.78 mg/dL
same,POTASSIUM,[2],6.05 MEQ/L
same,SODIUM,[2],144.57 MEQ/L
same,TOTAL BILIRUBIN,[2],0.25 mg/dL
same,TOTAL PROTEIN,[2],5.83 G/DL
same,URIC ACID,[2],1.58 mg/dL
same,ABSOLUTE BASOPHIL,[3],0 CELLS/uL
same,ABSOLUTE EOSINOPHIL,[3],245 CELLS/uL
same,ABSOLUTE LYMPHOCYTE,[3],12670.67 CELLS/uL
same,ABSOLUTE MONOCYTE,[3],0 CELLS/uL
same,ABSOLUTE SEGMENTED NEUTROPHIL,[3],1651 CELLS/uL
same,BASOPHIL,[3],0%
same,EOSINOPHIL,[3],1.67%
same,ERYTHROCYTE COUNT,[3],5.81 x10E6/uL
same,HEMATOCRIT,[3],35.97%
same,HEMOGLOBIN,[3],13.47 G/DL
same,LEUKOCYTE COUNT,[3],14.57 x10E3/uL
same,LYMPHOCYTE,[3],87.33%
same,MEAN CORPUSCULAR HEMOGLOBIN,[3],23.27 pg
same,MEAN CORPUSCULAR HEMOGLOBIN CONCENTRATION,[3],37.43 G/DL
same,MEAN CORPUSCULAR VOLUME,[3],62.03 fL
same,MONOCYTE,[3],0%
same,NEUTROPHIL,[3],11%
same,NUCLEATED RED BLOOD CELLS,[3],0 /100WBC
same,PLATELET COUNT,[3],1364.67 x10E3/uL
same,ALANINE AMINOTRANSFERASE,[3],47.67 u/L
same,ALBUMIN,[3],4.2 G/DL
same,ALKALINE PHOSPHATASE,[3],292.33 u/L
same,ASPARTATE AMINOTRANSFERASE,[3],78.67 u/L
same,BLOOD UREA NITROGEN,[3],14.67 mg/dL
same,CARBON DIOXIDE,[3],25 mmol/L
same,CHLORIDE,[3],102.33 MEQ/L
same,CHOLESTEROL,[3],80.67 mg/dL
same,CREATINE PHOSPHOKINASE,[3],290.33 u/L
same,CREATININE,[3],0.19 mg/dL
same,GLUCOSE,[3],173.67 mg/dL
same,LACTATE DEHYDROGENASE,[3],127.33 u/L
same,LIPASE,[3],8.33 u/L
same,PHOSPHORUS,[3],12.7 mg/dL
same,POTASSIUM,[3],5.88 MEQ/L
same,SODIUM,[3],145.47 MEQ/L
same,TOTAL BILIRUBIN,[3],0.2 mg/dL
same,TOTAL PROTEIN,[3],6.23 G/DL
same,URIC ACID,[3],1.67 mg/dL
